Data set [1] can be described thus: Retention of iopamidol injected into the submucous tissue of rat large intestine, X-ray photography and CT scanning. Type of data set: in vivo, Wistar rats. The settings on record: normal rats, 20 μl injected into submucous tissue of the left colon, after one hour. The protocol: Next, the retention of physiologically active substances in the submucous tissue of normal rats was analyzed by diagnostic imaging using X-ray and CT, which are routinely used clinically. Twelve-week-old male Wistar rats were anesthetized with Nembutal, and then an ultrathin endoscope for humans was inserted into the large intestines and 20 μl of iopamidol, a contrast medium, was endoscopically injected alone into the submucous tissue of the left colon using a local injection needle.
X-ray photography and CT scanning was carried out after one hour.

A short description of data set [2]: Nucleic acid kinetics in the submucous tissue of mouse large intestine, siRNA concentration by ELISA. Type of data set: in vivo. The settings on record: mice, 0.3 μg/10 μl at three sites. As for the experimental part: Next, in order to also confirm the retention of injected siRNA in the submucous tissue of the large intestine by biochemical methods, the concentration of siRNA in the large intestine was determined by using the ELISA method for direct quantitation of siRNA according to a published report (Rosie Z et al. Analytical Biochem. 304: 19-25, 2002). The nucleotide sequences of GalNac 4S-6ST siRNA used in this Example are shown below, but the sequences are not limited to the example shown herein.
GalNAc4S-6ST siRNA (0.3 μg/10 μl) was injected at three sites to the submucous tissue of large intestine in eight-week-old female C57BL/6.1 mice by the same method described in Example 3. The mice were sacrificed 0.5, 3, 6, or 24 hours after injection to prepare histological samples of the large intestine. The siRNA concentrations were determined by the ELISA methods.
1 μg/ml siRNA before injection was used as a positive control without any additional treatment.
In general terms: ELISA stands for enzyme-linked immunosorbent assay.

A further data set addresses T1, ribonuclease (RNase A) (Bos taurus, UniProt P61823).
T1 construct: purchased SIGMA
T1 sequence (P61823 27-150): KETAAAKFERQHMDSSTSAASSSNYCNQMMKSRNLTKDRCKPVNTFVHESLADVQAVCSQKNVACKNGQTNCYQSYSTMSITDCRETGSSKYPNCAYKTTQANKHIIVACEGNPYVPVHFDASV
Nature of the data set: Stability test for GalNAc4S-6ST siRNA at 37° C., agarose gel electrophoresis. Type of data set: in vitro ADME. As for the experimental part:
In this Example, GalNAc4S-6ST siRNA, the same substance used in Example 5, was assessed for its stability. First, test solutions were prepared by adding 1 μg of GalNAc4S-6ST siRNA to 200 μl of sterile phosphate buffer or 0.1% atelocollagen and stirring the mixtures at 4° C. for 20 minutes. 0.1% atelocollagen was prepared by combining 1% atelocollagen (Koken) with ten volumes of sterile phosphate buffer and stirring the mixture at 4° C. for 16 hours. Then, 40 μg of a ribonuclease (RNase A; SIGMA) was added to the prepared test solutions of GalNAc4S-6ST siRNA, and the mixtures were incubated to react at 37° C. The reaction time was 5, 15, 30, 45, or 60 minutes. 500 μl of RNA iso (Takara Bio) was added to the test solutions after reaction. The mixtures were incubated on ice for five minutes, and centrifuged at 14,000 rpm for 15 minutes. The resulting supernatants were collected, and 500 μl of isopropanol and 1 μl of glycogen (Invitrogen) were added thereto. The mixtures were incubated for 15 minutes, and centrifuged at 14,000 rpm for 15 minutes. The supernatants were discarded, and the pellets were saved. 1 ml of 75% ethanol was added to the pellets, and the mixtures were centrifuged at 14,000 rpm for 15 minutes. After this step was repeated twice, the pellets were dried and dissolved in 25 μl of injection solvent (Otsuka Pharmaceutical). 10 μl each of the solutions were combined with 2 μl of Loading Dye (Invitrogen). 3.5% agarose gel was prepared using UltraPure Agarose (Invitrogen), and the samples were electrophoresed in a Mupid-2 plus (ADVANCE) at 100 V for 20 minutes. After electrophoresis, the gel was shaken for 20 minutes in a stain solution prepared by 10,000 times diluting Ethidium Bromide (Invitrogen) with 1×LoTE (composition: 3 mM Tris-HCl (pH 7.5) (Invitrogen), 0.2 mM EDTA (pH 7.5) (Sigma Aldrich Japan)). The gel was photographed with Fluourchem (Innotech) and analyzed.

In data set [3] the test system is GalNAc4S-6ST gene expression. Nature of the data set: Gene knockdown by siRNA administered into the submucous tissue of large intestine in DSS colitis model mice, quantitative PCR. Type of data set: in vivo, mouse. The note with it: 0.3 μg/head into submucous tissue of large intestine, day 5. As for the experimental part:
(§1) A colitis model mice was prepared by allowing C57BL/6J mice (female, six weeks old; CLEA Japan Inc.) to freely drink […] containing 3% dextran sulfate sodium (DSS; Wako Pure Chemical Industries Inc.) for five days. This DSS-induced colitis model has excellent reproducibility, and is thus used widely as a standard experimental model for inflammatory bowel diseases such as mouse ulcerative colitis and Crohn's disease (Sasaki N, J Inflamm. 2005 2: 13; as a review, Pucilowska J B et al. Am J Physiol Gastroenterol Liver Physiol. 279: G653-G659, 2000).
The same GalNAc4S-6ST siRNA (0.3 μg/head) as used in Example 5 was injected to the submucous tissue of mouse large intestine, while the mice were allowed to drink water containing 3% DSS. […] The body weight and disease activity index (DAI) score (Kihara M, Gut. 2003 52: 713-9) were recorded for five days while the mice were allowed to drink water containing 3% DDS. […]
1 ml of RNA iso (Takara Bio) was added to 50 mg each of excised organs (large intestine and kidney). […] The RNA concentrations of extracted samples in UV plates (Corning Costar) were determined using a plate reader (POWER Wave XS; BIO-TEK).
Next, reverse transcription reaction (cDNA synthesis) is conducted by the following procedure. […] For quantitative PCR, SYBR Premix Kit (TAKARA) and Real-time PCR thermal cycler DICE (TAKARA) were used. […]

Data set [4] concerns DSS-induced colitis model mice. Nature of the data set: Disease activity index (DAI: stool consistency, fecal occult blood) in DSS colitis model mice. Type of data set: in vivo, C57BL/6J mice. The settings on record: compared to the control group. As for the experimental part:
as §1
The same GalNAc4S-6ST siRNA (0.3 μg/head) as used in Example 5 was injected to the submucous tissue of mouse large intestine, while the mice were allowed to drink water containing 3% DSS. The control groups used were: a group injected with scramble siRNA (“BLOCK-iT Fluorescent Oligo (Invitrogen)” in Example 4) and an untreated group in which mice were allowed to drink DSS water only. The body weight and disease activity index (DAI) score (Kihara M, Gut. 2003 52: 713-9) were recorded for five days while the mice were allowed to drink water containing 3% DDS. […]
The colitis activity index (DAI) was analyzed by the same method described in Example 7.
The first day (day 0) of feeding with DSS water is defined as 1, and the stool consistency and fecal occult blood in each mouse were recorded. […]

The test system of data set [5] is DSS-induced colitis model mice. Nature of the data set: Length of the large intestine (colonic contraction) in DSS colitis model mice. Type of data set: in vivo, C57BL/6J mice. The settings on record: day five, p<0.05, t test. The protocol:
as §1
(§2) The same GalNAc4S-6ST siRNA (0.3 μg/head) as used in Example 5 was injected to the submucous tissue of mouse large intestine, while the mice were allowed to drink water containing 3% DSS. The control groups used were: a group injected with scramble siRNA (“BLOCK-iT Fluorescent Oligo (Invitrogen)” in Example 4) and an untreated group in which mice were allowed to drink DSS water only. The body weight and disease activity index (DAI) score (Kihara M, Gut. 2003 52: 713-9) were recorded for five days while the mice were allowed to drink water containing 3% DDS. Then, the mice were sacrificed on the fifth day.
Next, the length of the large intestine was measured after sacrificing mice on day five. […] The length of the large intestine is a crucial indicator that reflects the intestinal fibrosis.

Data set [6] concerns DSS-induced colitis model mice. The data set is described as follows: Histology (hematoxylin-eosin) of large intestine in DSS colitis model mice. Type of data set: in vivo, C57BL/6J mice. The settings on record: HE-stained sections of large intestine. The protocol:
as §1, §2
Next, tissue sections were prepared from collected large intestines and stained with hematoxylin-eosin. The resulting histological images were analyzed (FIG. 10).

The mark [7] stands for this setting: presence of ribonuclease (RNase A), phosphate buffer.

As to `C[C@H](O)C(=O)Nc1c(I)c(C(=O)NC(CO)CO)c(I)c(C(=O)NC(CO)CO)c1I` [iopamidol, N,N′-Bis[2-hydroxy-1-(hydroxymethyl)ethyl]-5-[(2S)-2-hydroxypropanoylamino]-2,4,6-triiodoisophthalamide], in data set [1], the “Retention at the injection site, CT images” value was “retained specifically at the injection sites and did not spread to other slices”; the “Retention at the injection site, X-ray images” value was “retained in the submucous tissue of the colon without intraperitoneal leakage and transfer to other sections”.
For the molecule “GalNAc4S-6ST siRNA: siRNA of SEQ ID NOs: 1 and 2 against GalNAc4S-6ST (Gene Bank accession number NM_015892), Hokkaido System Science (chain 1 GGAGCAGAGCAAGAUGAAUACAAUCAG; chain 2 GAUUGUAUUCAUCUUGCUCUGCUCCAU; listed as RNA, further chemistry not given here)”, the “siRNA concentration in the large intestine” value (shortened to “siRNA concentration”) in data set [2] (0.5 hour after injection) was “retained at a very high concentration”. Moreover, in data set [2] (24 hours after injection), the “siRNA concentration” value was “continually remained retained”. Besides, the “siRNA concentration” value in data set [2] (three hours after injection) is “decreased by half”. For the same molecule, the “Stability (gel band)” value with ribonuclease (RNase A) (absence of ribonuclease, sterile phosphate buffer, after 60 minutes) was “relatively stable”. Besides, in the data set with ribonuclease (RNase A) (setting [7]), the “Time after which the band disappeared” value stood at 30 min and the “Time point at which siRNA degradation was observed” value stood at 15 min. Moreover, the Gel band result in the data set with ribonuclease (RNase A) (siRNA embedded in 0.1% atelocollagen, ribonuclease (RNase A), after 30 minutes) is listed as “faint but detectable”. In addition, in data set [3], the “Expression of GalNAc4S-6ST in the kidney” value was “remained unchanged” and the “Expression of GalNAc4S-6ST in the large intestine” value is “significantly suppressed the increased expression”. In addition, the “DAI score (stool consistency and fecal occult blood)” value in data set [4] was “lower”. The “Colonic contraction (length of the large intestine)” value in data set [5] was “significantly suppressed”. In data set [6], the “Epithelial disruption, infiltration of inflammatory cells into lamina propria and submucosa, and thickening of muscular layer” value is on record as “markedly suppressed”.

These data come from patent US11485974B2, “Method of fixing and expressing physiologically active substance” (STELIC INSTITUTE & CO., priority 2007, dated 2022).
